Tests used:
[1] = target: Protein kinase C theta type (Homo sapiens, UniProt Q04759); assay: Inhibition of PKCtheta (unknown origin) by HTRF assay
BXPC-3 = assay: Cytotoxicity in human BXPC-3 cells assessed as reduction in cell viability incubated for 24 hrs by CCK8 assay; format: functional, cell-based; conditions: BXPC-3, 24 h
ASPC1 = assay: Cytotoxicity in human ASPC1 cells assessed as reduction in cell viability incubated for 24 hrs by CCK8 assay; format: functional, cell-based; conditions: ASPC1, 24 h
A549 = assay: Cytotoxicity in human A549 cells assessed as reduction in cell viability incubated for 24 hrs by CCK8 assay; format: functional, cell-based; conditions: A549, 24 h
NCI-H1299 = assay: Cytotoxicity in human NCI-H1299 cells assessed as reduction in cell viability incubated for 24 hrs by CCK8 assay; format: functional, cell-based; conditions: NCI-H1299, 24 h
NCI-H1975 = assay: Cytotoxicity in human NCI-H1975 cells assessed as reduction in cell viability incubated for 24 hrs by CCK8 assay; format: functional, cell-based; conditions: NCI-H1975, 24 h
PC-9 = assay: Cytotoxicity in human PC-9 cells assessed as reduction in cell viability incubated for 24 hrs by CCK8 assay; format: functional, cell-based; conditions: PC-9, 24 h
RKO = assay: Cytotoxicity in human RKO cells assessed as reduction in cell viability incubated for 24 hrs by CCK8 assay; format: functional, cell-based
MGC-803 = assay: Cytotoxicity in human MGC-803 cells assessed as reduction in cell viability incubated for 24 hrs by CCK8 assay; format: functional, cell-based; conditions: MGC-803, 24 h

Sequence of Protein kinase C theta type (Q04759 whole entry): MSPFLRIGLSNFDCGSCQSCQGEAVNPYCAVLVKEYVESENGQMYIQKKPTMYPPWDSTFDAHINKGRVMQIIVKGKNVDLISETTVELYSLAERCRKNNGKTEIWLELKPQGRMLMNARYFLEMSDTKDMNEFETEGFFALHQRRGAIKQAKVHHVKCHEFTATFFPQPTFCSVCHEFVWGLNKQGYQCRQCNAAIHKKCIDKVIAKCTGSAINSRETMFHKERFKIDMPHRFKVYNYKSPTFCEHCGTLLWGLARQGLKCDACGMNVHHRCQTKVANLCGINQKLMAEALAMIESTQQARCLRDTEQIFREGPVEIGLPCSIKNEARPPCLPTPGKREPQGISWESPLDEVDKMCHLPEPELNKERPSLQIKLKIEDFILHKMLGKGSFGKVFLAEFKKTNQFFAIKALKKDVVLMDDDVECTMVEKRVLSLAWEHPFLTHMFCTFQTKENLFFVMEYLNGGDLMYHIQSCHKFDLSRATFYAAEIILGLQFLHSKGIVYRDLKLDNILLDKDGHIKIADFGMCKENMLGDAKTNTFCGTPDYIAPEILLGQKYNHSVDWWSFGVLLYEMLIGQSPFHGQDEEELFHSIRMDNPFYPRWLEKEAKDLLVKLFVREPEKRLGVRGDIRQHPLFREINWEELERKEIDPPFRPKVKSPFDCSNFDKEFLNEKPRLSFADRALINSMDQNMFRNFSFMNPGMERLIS

Compound | IC50 [1] [µM] | further results
O=C1NC(O)c2c1c1c3ccccc3[nH]c1c1[nH]c3ccccc3c21 (configuration not stated) | > 2.5 | –
C[C@@H]1O[C@@H](n2c3ccccc3c3c4c(c5c6ccccc6[nH]c5c32)CNC4=O)C[C@@H](N)[C@H]1O | 0.26 | –
COC1NC(=O)c2c1c1c3ccccc3[nH]c1c1[nH]c3ccc(O)cc3c21 (configuration not stated) | > 2.5 | –
O=C1NCc2c1c1c3ccccc3[nH]c1c1[nH]c3ccc(O)cc3c21 | > 2.5 | –
CC(=O)N[C@@H]1C[C@H](n2c3ccc(O)cc3c3c4c(c5c6ccccc6[nH]c5c32)CNC4=O)O[C@@H](C)[C@@H]1O | 0.28 | –
C[C@@H]1O[C@@H](n2c3ccc(O)cc3c3c4c(c5c6ccccc6[nH]c5c32)CNC4=O)C[C@@H](N)[C@H]1O | > 2.5 | –
O=C1NCc2c1c1c3cc(O)ccc3[nH]c1c1[nH]c3ccccc3c21 | 2.11 | –
C[C@@H]1O[C@@H](n2c3ccccc3c3c4c(c5c6ccccc6[nH]c5c32)C(=O)NC4=O)[C@H](O)[C@H](O)[C@H]1O | > 2.5 | –
C[C@@H]1O[C@@H](n2c3ccc(O)cc3c3c4c(c5c6ccccc6[nH]c5c32)CNC4=O)[C@H](O)[C@H](O)[C@H]1O | > 2.5 | –
COC(=O)[C@@]1(OC)C[C@H]2O[C@]1(C)n1c3ccccc3c3c4c(c5c6ccccc6n2c5c31)C(=O)NC4 | 0.52 | –
C[C@]12O[C@H](C[C@]1(O)C(=O)O)n1c3ccccc3c3c4c(c5c6ccccc6n2c5c31)C(=O)NC4=O | 1.86 | –
CO[C@H]1NC(=O)c2c1c1c3ccccc3[nH]c1c1c2c2ccccc2n1[C@@H]1O[C@@H](C)[C@H](O)[C@@H](O)[C@H]1O | > 2.5 | –
CO[C@H]1NC(=O)c2c1c1c3ccccc3n3c1c1c2c2ccccc2n1[C@@H]1O[C@@]3(C)[C@H](OC)[C@@H](O)[C@H]1O | 0.89 | –
C[C@]12O[C@H](C[C@]1(O)C(=O)O)n1c3ccccc3c3c4c(c5c6ccccc6n2c5c31)CNC4=O | 5.59 | –
C[C@@H]1O[C@@H](n2c3ccccc3c3c4c(c5c6ccccc6[nH]c5c32)C(=O)NC4=O)C[C@@H](N)[C@H]1O | 1.18 | –
CO[C@@H]1[C@@H](O)[C@@H](O)[C@H]2O[C@]1(C)n1c3ccccc3c3c4c(c5c6ccccc6n2c5c31)C(=O)NC4=O | 1.42 | –
COC(=O)[C@H]1C[C@H]2O[C@]1(C)n1c3ccccc3c3c4c(c5c6ccccc6n2c5c31)C(=O)NC4 | 1.68 | –
CO[C@@H]1[C@H](NC(=O)C(=O)c2c[nH]c3ccccc23)C[C@H]2O[C@]1(C)n1c3ccccc3c3c4c(c5c6ccccc6n2c5c31)C(=O)NC4 | 1.79 | –

Compound | IC50 [1] [µM] | further results
CC(=O)N[C@@H]1C[C@H](n2c3ccccc3c3c4c(c5c6ccccc6[nH]c5c32)C(=O)NC4=O)O[C@@H](C)[C@@H]1O | > 2.5 | –
C[C@@H]1O[C@@H]2C[C@](O)([C@H]1O)n1c3ccccc3c3c4c(c5c6ccccc6n2c5c31)C(=O)NC4 | 1.91 | –
COc1cc(/C=C(/C(N)=O)n2c3ccccc3c3c4c(c5c6ccccc6[nH]c5c32)CNC4=O)ccc1O | > 2.5 | –
CO[C@@H]1[C@@H](O)[C@@H](O)[C@H]2O[C@]1(C)n1c3ccccc3c3c4c(c5c6ccccc6n2c5c31)C(=O)N[C@H]4O | 2.25 | –
CN[C@]1(C(=O)OC)C[C@H]2O[C@]1(C)n1c3ccccc3c3c4c(c5c6ccccc6n2c5c31)C(=O)NC4 | > 2.5 | –
CO[C@@H]1[C@@H](O)[C@@H](O)[C@H]2O[C@]1(C)n1c3ccccc3c3c4c(c5c6ccccc6n2c5c31)C(=O)N[C@@H]4O | > 2.5 | –
C[C@@H]1O[C@@H](n2c3ccccc3c3c4c(c5c6ccccc6[nH]c5c32)[C@H](O)NC4=O)[C@H](O)[C@H](O)[C@H]1O | > 2.5 | –
CN1Cc2c(c3c4ccccc4[nH]c3c3[nH]c4ccccc4c23)C1=O | > 2.5 | –
COC1=C(C)O[C@@H]2C[C@@]1(OC)n1c3ccccc3c3c4c(c5c6ccccc6n2c5c31)C(=O)NC4 | 0.37 | –
C[C@H]1NC(=O)c2c1c1c3ccccc3[nH]c1c1[nH]c3ccccc3c21 | > 2.5 | –
C[C@H]1O[C@@H]2C[C@](O)([C@@H]1O)n1c3ccccc3c3c4c(c5c6ccccc6n2c5c31)C(=O)NC4 | > 2.5 | –
CO[C@@H]1[C@H](O)[C@H](O)[C@H](C)O[C@H]1n1c2ccccc2c2c3c(c4c5ccccc5[nH]c4c21)CNC3=O | 9.43 | –
CO[C@@H]1[C@@H](O)[C@@H](O)[C@H]2O[C@]1(C)n1c3ccccc3c3c4c(c5c6ccccc6n2c5c31)C(=O)N[C@H]4OC | > 2.5 | –
COC1NC(=O)c2c1c1c3ccccc3[nH]c1c1[nH]c3ccccc3c21 (configuration not stated) | > 2.5 | –
CN[C@@H]1C[C@H]2O[C@@](C)([C@@H]1OC)n1c3ccccc3c3c4c(c5c6ccccc6n2c5c31)C(=O)NC4=O (stereo in doubt; 14) | 0.017 | –
CN1CCN(c2nc(C3=C(c4c[nH]c5ccccc45)C(=O)NC3=O)c3ccccc3n2)CC1 [SOTRASTAURIN] | – | IC50 (BXPC-3): > 3.2 µM; IC50 (ASPC1): > 3.2 µM; IC50 (A549): > 3.2 µM; IC50 (NCI-H1299): > 3.2 µM; IC50 (NCI-H1975): > 3.2 µM; IC50 (PC-9): > 3.2 µM; IC50 (RKO): > 3.2 µM; IC50 (MGC-803): > 3.2 µM
O=C1NC(=O)c2c1c1c3ccccc3[nH]c1c1[nH]c3ccccc3c21 [STAUROSPORINE AGLYCON] | > 2.5 | –
O=C1NCc2c1c1c3ccccc3[nH]c1c1[nH]c3ccccc3c21 [STAUROSPORINONE] | > 2.5 | –

More lines, main results first:

IC50 [1] [µM] | Compound | further results
> 2.5 | C[C@@H]1O[C@@H](n2c3ccccc3c3c4c(c5c6ccccc6[nH]c5c32)CNC4=O)[C@H](O)[C@H](O)[C@H]1O | –
> 2.5 | CC(=O)N[C@@H]1C[C@H](n2c3ccccc3c3c4c(c5c6ccccc6[nH]c5c32)CNC4=O)O[C@@H](C)[C@@H]1O | –
0.27 | CC(=O)N[C@H]1C[C@H]2O[C@@](C)([C@@H]1O)n1c3ccccc3c3c4c(c5c6ccccc6n2c5c31)C(=O)NC4 | –
> 2.5 | CC(=O)N[C@@H]1C[C@H](n2c3ccccc3c3c4c(c5c6cc(O)ccc6[nH]c5c32)CNC4=O)O[C@@H](C)[C@@H]1O | –
> 2.5 | C[C@H]1O[C@@H]2C[C@](O)([C@H]1O)n1c3ccccc3c3c4c(c5c6cc(O)ccc6n2c5c31)C(=O)NC4 | –
> 2.5 | C[C@@H]1O[C@@H]2C[C@](O)([C@H]1O)n1c3ccccc3c3c4c(c5c6cc(O)ccc6n2c5c31)C(=O)NC4 | –
> 2.5 | C[C@@H]1O[C@@H](n2c3ccccc3c3c4c(c5c6ccccc6[nH]c5c32)CNC4=O)C[C@@H](NC=O)[C@H]1O | –
> 2.5 | CNC(=O)C[C@H]1O[C@@](C)(C(=O)OC)n2c3ccccc3c3c4c(c5c6ccccc6n1c5c32)C(=O)NC4 | –
0.25 | CO[C@@H]1[C@H](N(C)C=O)C[C@H]2O[C@]1(C)n1c3ccccc3c3c4c(c5c6ccccc6n2c5c31)C(=O)NC4 | –
> 2.5 | CNn1c2ccccc2c2c3c(c4c5ccccc5[nH]c4c21)C(=O)NC3 | –
> 2.5 | CO[C@@H]1[C@H](NC=O)C[C@H]2O[C@]1(C)n1c3ccccc3c3c4c(c5c6ccccc6n2c5c31)C(=O)NC4 | –
> 2.5 | CO[C@@H]1C(=O)C[C@H]2O[C@]1(C)n1c3ccccc3c3c4c(c5c6ccccc6n2c5c31)C(=O)NC4 | –
4.76 | C[C@@H]1O[C@@H](n2c3ccccc3c3c4c(c5c6ccccc6[nH]c5c32)C(=O)NC4=O)C[C@@H](NC=O)[C@H]1O | –
0.036 | CO[C@@H]1[C@H](N)C[C@H]2O[C@]1(C)n1c3ccccc3c3c4c(c5c6ccccc6n2c5c31)C(=O)NC4=O | –
0.17 | CO[C@H]1[C@@H](N2CC[C@@H](O)C2=O)C[C@@H]2O[C@@]1(C)n1c3ccccc3c3c4c(c5c6ccccc6n2c5c31)C(=O)NC4 | –
0.038 | CO[C@@H]1[C@H](NC(C)=O)C[C@H]2O[C@]1(C)n1c3ccccc3c3c4c(c5c6ccccc6n2c5c31)C(=O)NC4 | –
> 2.5 | CO[C@@H]1/C(=N/O)C[C@H]2O[C@]1(C)n1c3ccccc3c3c4c(c5c6ccccc6n2c5c31)C(=O)NC4 | –
1.01 | CO[C@@H]1[C@@H](O)[C@@H](O)[C@H]2O[C@]1(C)n1c3ccccc3c3c4c(c5c6ccccc6n2c5c31)C(=O)NC4 | –
1.3 | CO[C@@H]1[C@H](O)C[C@H]2O[C@]1(C)n1c3ccccc3c3c4c(c5c6ccccc6n2c5c31)C(=O)NC4 | –
0.6 | C[C@]12O[C@H](C[C@@H](O)[C@H]1O)n1c3ccccc3c3c4c(c5c6ccccc6n2c5c31)CNC4=O | –
0.48 | CO[C@@H]1[C@@H](O)C[C@H]2O[C@]1(C)n1c3ccccc3c3c4c(c5c6ccccc6n2c5c31)C(=O)NC4 | –
0.17 | CO[C@@H]1[C@H](N(C)C(C)=O)C[C@H]2O[C@]1(C)n1c3ccccc3c3c4c(c5c6ccccc6n2c5c31)C(=O)NC4 | –
> 2.5 | CO[C@@H]1C(C)(O)O[C@@H]2C[C@@]1(OC)n1c3ccccc3c3c4c(c5c6ccccc6n2c5c31)C(=O)NC4 (some centres not stated) | –
0.05 | CO[C@@H]1[C@H](N(C)C(C)=O)C[C@H]2O[C@]1(C)n1c3ccccc3c3c4c(c5c6ccccc6n2c5c31)C(=O)NC4=O | –
1.05 | CC(=O)N[C@H]1C[C@H](n2c3ccccc3c3c4c(c5c6ccccc6[nH]c5c32)CNC4=O)O[C@@H](C)[C@@H]1O | –
> 2.5 | COC(=O)c1cccc2c1NC1(C[C@H]3O[C@]1(C)n1c4ccccc4c4c5c(c6c7ccccc7n3c6c41)C(=O)NC5)C(=O)O2 (some centres not stated) | –
0.56 | CO[C@H]1C(=O)C[C@H]2O[C@]1(C)n1c3ccccc3c3c4c(c5c6ccccc6n2c5c31)C(=O)NC4 | –
0.4 | CO[C@@H]1[C@H](N(C)C(N)=O)C[C@H]2O[C@]1(C)n1c3ccccc3c3c4c(c5c6ccccc6n2c5c31)C(=O)NC4 | –
5.75 | C[C@@H]1O[C@@H](n2c3ccccc3c3c4c(c5c6ccccc6[nH]c5c32)CNC4=O)C[C@@H](N)[C@H]1OC(O)C1CO1 (some centres not stated) | –
